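Assay format: 96-well plates, 48-hour exposure. GI50 marks 50% less growth. TGI: concentration producing complete growth inhibition.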
Experiments:
Assay in all cases: NCI anticancer screen, dose series, 48 h
UO-31 renal = test system: UO-31 renal
LOX IMVI melanoma = test system: LOX IMVI melanoma
HOP-62 NSCLC = test system: HOP-62 NSCLC
NCI-H23 lung = test system: NCI-H23 lung
HCC-2998 colon = test system: HCC-2998 colon
ACHN renal = test system: ACHN renal
HCT-116 colon = test system: HCT-116 colon
OVCAR-8 ovarian = test system: OVCAR-8 ovarian
CCRF-CEM leukemia = test system: CCRF-CEM leukemia
UACC-257 melanoma = test system: UACC-257 melanoma
MCF7 breast = test system: MCF7 breast
UACC-62 melanoma = test system: UACC-62 melanoma
OVCAR-5 ovarian = test system: OVCAR-5 ovarian
M14 melanoma = test system: M14 melanoma
COLO 205 colon = test system: COLO 205 colon
SF-539 CNS = test system: SF-539 CNS
SF-295 CNS = test system: SF-295 CNS
HS 578T breast = test system: HS 578T breast
DU-145 prostate = test system: DU-145 prostate
TK-10 renal = test system: TK-10 renal
U251 CNS = test system: U251 CNS
SK-OV-3 ovarian = test system: SK-OV-3 ovarian
SK-MEL-5 melanoma = test system: SK-MEL-5 melanoma
SNB-19 CNS = test system: SNB-19 CNS
MDA-MB-231 breast = test system: MDA-MB-231 breast
HL-60(TB) leukemia = test system: HL-60(TB) leukemia
HT29 colon = test system: HT29 colon
HCT-15 colon = test system: HCT-15 colon
KM12 colon = test system: KM12 colon
MDA-MB-435 = test system: MDA-MB-435
OVCAR-4 ovarian = test system: OVCAR-4 ovarian
K-562 leukemia = test system: K-562 leukemia
A498 renal = test system: A498 renal
SK-MEL-28 melanoma = test system: SK-MEL-28 melanoma
CAKI-1 renal = test system: CAKI-1 renal
OVCAR-3 ovarian = test system: OVCAR-3 ovarian
SW-620 colon = test system: SW-620 colon
SF-268 CNS = test system: SF-268 CNS
BT-549 breast = test system: BT-549 breast
HOP-92 NSCLC = test system: HOP-92 NSCLC
MOLT-4 leukemia = test system: MOLT-4 leukemia
NCI-H460 lung = test system: NCI-H460 lung
SK-MEL-2 melanoma = test system: SK-MEL-2 melanoma
PC-3 prostate = test system: PC-3 prostate
NCI-H522 lung = test system: NCI-H522 lung
MALME-3M melanoma = test system: MALME-3M melanoma
NCI/ADR-RES ovarian = test system: NCI/ADR-RES ovarian
RPMI-8226 leukemia = test system: RPMI-8226 leukemia
A549 NSCLC = test system: A549 NSCLC
SR leukemia = test system: SR leukemia
SNB-75 CNS = test system: SNB-75 CNS
NCI-H226 lung = test system: NCI-H226 lung
EKVX NSCLC = test system: EKVX NSCLC
786-0 renal = test system: 786-0 renal
SN12C renal = test system: SN12C renal
T-47D breast = test system: T-47D breast
IGROV1 ovarian = test system: IGROV1 ovarian

Structure (SMILES): CC1(C)CC(C(=O)OCCCCCCCCCCC[P+](c2ccccc2)(c2ccccc2)c2ccccc2)C(C)(C)N1O (stereo unspecified)
- GI50 (UO-31 renal): 972 nM
- TGI (UO-31 renal): 2290 nM
- GI50 (LOX IMVI melanoma): 207 nM
- TGI (LOX IMVI melanoma): 1050 nM
- GI50 (HOP-62 NSCLC): 319 nM
- TGI (HOP-62 NSCLC): 904 nM
- GI50 (NCI-H23 lung): 271 nM
- TGI (NCI-H23 lung): 1680 nM
- GI50 (HCC-2998 colon): 324 nM
- TGI (HCC-2998 colon): 1520 nM
- GI50 (ACHN renal): 422 nM
- TGI (ACHN renal): 1480 nM
- GI50 (HCT-116 colon): 185 nM
- TGI (HCT-116 colon): 1080 nM
- GI50 (OVCAR-8 ovarian): 319 nM
- TGI (OVCAR-8 ovarian): 1720 nM
- GI50 (CCRF-CEM leukemia): 110 nM
- TGI (CCRF-CEM leukemia): 766 nM
- GI50 (UACC-257 melanoma): 248 nM
- TGI (UACC-257 melanoma): 847 nM
- GI50 (MCF7 breast): 187 nM
- TGI (MCF7 breast): 836 nM
- GI50 (UACC-62 melanoma): 253 nM
- TGI (UACC-62 melanoma): 1240 nM
- GI50 (OVCAR-5 ovarian): 386 nM
- TGI (OVCAR-5 ovarian): 1380 nM
- GI50 (M14 melanoma): 302 nM
- TGI (M14 melanoma): 1080 nM
- GI50 (COLO 205 colon): 168 nM
- TGI (COLO 205 colon): 330 nM
- GI50 (SF-539 CNS): 324 nM
- TGI (SF-539 CNS): 1280 nM
- GI50 (SF-295 CNS): 211 nM
- TGI (SF-295 CNS): 538 nM
- GI50 (HS 578T breast): 354 nM
- TGI (HS 578T breast): 1840 nM
- GI50 (DU-145 prostate): 319 nM
- TGI (DU-145 prostate): 1390 nM
- GI50 (TK-10 renal): 362 nM
- TGI (TK-10 renal): 1670 nM
- GI50 (U251 CNS): 59.6 nM
- TGI (U251 CNS): 1110 nM
- GI50 (SK-OV-3 ovarian): 248 nM
- TGI (SK-OV-3 ovarian): 711 nM
- GI50 (SK-MEL-5 melanoma): 150 nM
- TGI (SK-MEL-5 melanoma): 299 nM
- GI50 (SNB-19 CNS): 263 nM
- TGI (SNB-19 CNS): 1240 nM
- GI50 (MDA-MB-231 breast): 252 nM
- TGI (MDA-MB-231 breast): 849 nM
- GI50 (HL-60(TB) leukemia): 35.5 nM
- TGI (HL-60(TB) leukemia): 130 nM
- GI50 (HT29 colon): 210 nM
- TGI (HT29 colon): 1170 nM
- GI50 (HCT-15 colon): 870 nM
- TGI (HCT-15 colon): 2230 nM
- GI50 (KM12 colon): 151 nM
- TGI (KM12 colon): 1130 nM
- GI50 (MDA-MB-435): 274 nM
- TGI (MDA-MB-435): 1330 nM
- GI50 (OVCAR-4 ovarian): 249 nM
- TGI (OVCAR-4 ovarian): 1400 nM
- GI50 (K-562 leukemia): 85.2 nM
- TGI (K-562 leukemia): 784 nM
- GI50 (A498 renal): 353 nM
- TGI (A498 renal): 1260 nM
- GI50 (SK-MEL-28 melanoma): 653 nM
- TGI (SK-MEL-28 melanoma): 1970 nM
- GI50 (CAKI-1 renal): 781 nM
- TGI (CAKI-1 renal): 2320 nM
- GI50 (OVCAR-3 ovarian): 132 nM
- TGI (OVCAR-3 ovarian): 835 nM
- GI50 (SW-620 colon): 344 nM
- TGI (SW-620 colon): 1450 nM
- GI50 (SF-268 CNS): 394 nM
- TGI (SF-268 CNS): 1540 nM
- GI50 (BT-549 breast): 116 nM
- TGI (BT-549 breast): 1050 nM

Structure (SMILES): COc1ccccc1N1CCN(CC(O)Cn2c(=O)c3c(OC)nc(C)cc3c(=O)n2-c2ccccc2)CC1 (stereo unspecified)
- GI50 (UO-31 renal): > 100000 nM
- TGI (UO-31 renal): > 100000 nM
- GI50 (LOX IMVI melanoma): 30500 nM
- TGI (LOX IMVI melanoma): > 100000 nM
- GI50 (HOP-92 NSCLC): 15700 nM
- TGI (HOP-92 NSCLC): 36000 nM
- GI50 (HOP-62 NSCLC): 43700 nM
- TGI (HOP-62 NSCLC): > 100000 nM
- GI50 (NCI-H23 lung): 59100 nM
- TGI (NCI-H23 lung): > 100000 nM
- GI50 (MOLT-4 leukemia): > 100000 nM
- TGI (MOLT-4 leukemia): > 100000 nM
- GI50 (NCI-H460 lung): > 100000 nM
- TGI (NCI-H460 lung): > 100000 nM
- GI50 (HCC-2998 colon): > 100000 nM
- TGI (HCC-2998 colon): > 100000 nM
- GI50 (ACHN renal): 37900 nM
- TGI (ACHN renal): > 100000 nM
- GI50 (HCT-116 colon): 67300 nM
- TGI (HCT-116 colon): > 100000 nM
- GI50 (SK-MEL-2 melanoma): 43900 nM
- TGI (SK-MEL-2 melanoma): > 100000 nM
- GI50 (CCRF-CEM leukemia): > 100000 nM
- TGI (CCRF-CEM leukemia): > 100000 nM
- GI50 (PC-3 prostate): 43000 nM
- TGI (PC-3 prostate): > 100000 nM
- GI50 (MCF7 breast): > 100000 nM
- TGI (MCF7 breast): > 100000 nM
- GI50 (NCI-H522 lung): > 100000 nM
- TGI (NCI-H522 lung): > 100000 nM
- GI50 (UACC-62 melanoma): 64900 nM
- TGI (UACC-62 melanoma): > 100000 nM
- GI50 (MALME-3M melanoma): > 100000 nM
- TGI (MALME-3M melanoma): > 100000 nM
- GI50 (NCI/ADR-RES ovarian): 87900 nM
- TGI (NCI/ADR-RES ovarian): > 100000 nM
- GI50 (OVCAR-5 ovarian): > 100000 nM
- TGI (OVCAR-5 ovarian): > 100000 nM
- GI50 (RPMI-8226 leukemia): 39600 nM
- TGI (RPMI-8226 leukemia): > 100000 nM
- GI50 (M14 melanoma): > 100000 nM
- TGI (M14 melanoma): > 100000 nM
- GI50 (COLO 205 colon): > 100000 nM
- TGI (COLO 205 colon): > 100000 nM
- GI50 (SF-539 CNS): 32600 nM
- TGI (SF-539 CNS): > 100000 nM
- GI50 (SF-295 CNS): 25800 nM
- TGI (SF-295 CNS): > 100000 nM
- GI50 (HS 578T breast): 25700 nM
- TGI (HS 578T breast): > 100000 nM
- GI50 (DU-145 prostate): > 100000 nM
- TGI (DU-145 prostate): > 100000 nM
- GI50 (TK-10 renal): 19400 nM
- TGI (TK-10 renal): 81700 nM
- GI50 (A549 NSCLC): > 100000 nM
- TGI (A549 NSCLC): > 100000 nM
- GI50 (U251 CNS): 31600 nM
- TGI (U251 CNS): > 100000 nM
- GI50 (SK-OV-3 ovarian): 23500 nM
- TGI (SK-OV-3 ovarian): > 100000 nM
- GI50 (SK-MEL-5 melanoma): 46200 nM
- TGI (SK-MEL-5 melanoma): > 100000 nM
- GI50 (SNB-19 CNS): 25500 nM
- TGI (SNB-19 CNS): > 100000 nM
- GI50 (SR leukemia): > 100000 nM
- TGI (SR leukemia): > 100000 nM
- GI50 (SNB-75 CNS): 14800 nM
- TGI (SNB-75 CNS): 37600 nM
- GI50 (MDA-MB-231 breast): 24300 nM
- TGI (MDA-MB-231 breast): > 100000 nM
- GI50 (HL-60(TB) leukemia): > 100000 nM
- TGI (HL-60(TB) leukemia): > 100000 nM
- GI50 (NCI-H226 lung): > 100000 nM
- TGI (NCI-H226 lung): > 100000 nM
- GI50 (HT29 colon): > 100000 nM
- TGI (HT29 colon): > 100000 nM
- GI50 (HCT-15 colon): > 100000 nM
- TGI (HCT-15 colon): > 100000 nM
- GI50 (KM12 colon): > 100000 nM
- TGI (KM12 colon): > 100000 nM
- GI50 (MDA-MB-435): > 100000 nM
- TGI (MDA-MB-435): > 100000 nM
- GI50 (OVCAR-4 ovarian): > 100000 nM
- TGI (OVCAR-4 ovarian): > 100000 nM
- GI50 (K-562 leukemia): > 100000 nM
- TGI (K-562 leukemia): > 100000 nM
- GI50 (EKVX NSCLC): 66100 nM
- TGI (EKVX NSCLC): > 100000 nM
- GI50 (A498 renal): 23800 nM
- TGI (A498 renal): 98200 nM
- GI50 (SK-MEL-28 melanoma): > 100000 nM
- TGI (SK-MEL-28 melanoma): > 100000 nM
- GI50 (CAKI-1 renal): 32700 nM
- TGI (CAKI-1 renal): > 100000 nM
- GI50 (786-0 renal): 24300 nM
- TGI (786-0 renal): 76900 nM
- GI50 (SN12C renal): > 100000 nM
- TGI (SN12C renal): > 100000 nM
- GI50 (OVCAR-3 ovarian): > 100000 nM
- TGI (OVCAR-3 ovarian): > 100000 nM
- GI50 (T-47D breast): > 100000 nM
- TGI (T-47D breast): > 100000 nM
- GI50 (SW-620 colon): > 100000 nM
- TGI (SW-620 colon): > 100000 nM
- GI50 (SF-268 CNS): 62100 nM
- TGI (SF-268 CNS): > 100000 nM
- GI50 (IGROV1 ovarian): 41000 nM
- TGI (IGROV1 ovarian): > 100000 nM
